Format in all cases: functional
One assay has as its system Haemophilus influenzae. Description: The compound has been evaluated for the antibacterial activity against Haemophilus influenzae 351HT3 (beta-lactamase +).
The subject of a further assay is Streptococcus pyogenes. Description: The compound has been evaluated for the antibacterial activity against Streptococcus pyogenes EryS 02A1UC1.
The test system of assay [1] is Staphylococcus aureus. Nature of the assay: The compound has been evaluated for the antibacterial activity against Staphylococcus aureus EryRc 011CB20 strains.
The test system of assay [2] is Streptococcus pneumoniae. Description: The compound has been evaluated for the antibacterial activity against Streptococcus pneumoniae EryS 032UC1 strains.
The subject of assay [3] is Streptococcus pneumoniae. Nature of the assay: The compound has been evaluated for the antibacterial activity against Streptococcus pneumoniae EryRc 030PW23c strains.
Assay [4] relates to Staphylococcus aureus. Nature of the assay: The compound has been evaluated for the antibacterial activity against Staphylococcus aureus EryRi 011GO25i strains.
In assay [5] the test system is Staphylococcus aureus. Description: The compound has been evaluated for the antibacterial activity against Staphylococcus aureus EryS 011UC4 strains.
For assay [6], the system named is Streptococcus pneumoniae. Nature of the assay: The compound has been evaluated for the antibacterial activity against Streptococcus pneumoniae Ery Ri 030SJ 5i strains.
The test system of assay [7] is Streptococcus pneumoniae. Nature of the assay: The compound has been evaluated for the antibacterial activity against Streptococcus pneumoniae EryRc 030SJ1 strains.
The subject of assay [8] is Mus musculus. Nature of the assay: The compound has been evaluated for the in vivo efficacy that protect 50% of mice from lethal infection by Streptococcus Pneumoniae EryRc 030MV2 strains after oral administration.
Assay [9] has as its system Mus musculus. Nature of the assay: The compound has been evaluated for the in vivo efficacy that protect 50% of mice from lethal infection by Streptococcus Pneumonia EryS 032UC1 strain after oral administration.
Assay [10] concerns Mus musculus. Description: The compound has been evaluated for the in vivo efficacy that protect 50%of mice from lethal infection by Haemophilus influenzae AmpR 351RD7 after oral administration.
Assay [11] has as its system Mus musculus. Description: The compound has been evaluated for the in vivo efficacy that protect 50% of mice from lethal infection by Streptococcus Pneumoniae EryRi 030SJ5i strains after oral administration.
Assay [12] deals with Mus musculus. Description: The compound has been evaluated for the in vivo efficacy that protect 50% of mice from lethal infection by Staphylococcus aureus EryS 011HT17 strains after oral administration.
Assay [13] deals with Mus musculus. Nature of the assay: The compound has been evaluated for the in vivo efficacy that protect 50% of mice from lethal infection of Streptococcus Pneumonia EryS 032UC1 strain after oral administration.
Assay [14] concerns Mus musculus. Nature of the assay: The compound has been evaluated for the in vivo efficacy that protect 50% of mice from lethal infection of Streptococcus Pneumoniae EryRi 030SJ5i strains after oral administration.
The subject of assay [15] is Mus musculus. Description: The compound has been evaluated for the in vivo efficacy that protect 50% of mice from lethal infection of Streptococcus Pneumoniae EryRc 030MV2 strains after oral administration.
Assay [16] has as its system Mus musculus. Nature of the assay: The compound has been evaluated for the in vivo efficacy that protect 50% of mice from lethal infection of Staphylococcus aureus EryS 011HT17 strains after oral administration.
In assay [17] the test system is Mus musculus. Description: The compound has been evaluated for the in vivo efficacy that protect 50%of mice from lethal infection of Haemophilus influenzae AmpR 351RD7 after oral administration.

Molecules are shown by their SMILES. Converted amounts (≈) assume the structure as drawn.

`CC[C@H]1OC(=O)/C(C)=C(/OCOCCN(C)C)[C@H](C)[C@@H](O[C@@H]2O[C@H](C)C[C@H](N(C)C)[C@H]2O)[C@](C)(OC)C[C@@H](C)C(=O)[C@H](C)[C@H]2N(CCCCn3cnc(-c4cccnc4)c3)C(=O)O[C@]12C`: the MIC is 20 µg/mL (≈ 21.9 µM) in the assay on Haemophilus influenzae; 0.3 µg/mL (≈ 0.329 µM) in the assay with Streptococcus pyogenes; greater than 40 µg/mL against Staphylococcus aureus [1]; 0.15 µg/mL (≈ 0.164 µM) against Streptococcus pneumoniae [2]; 2.5 µg/mL (≈ 2.74 µM) in the assay with Streptococcus pneumoniae [3]; 20 µg/mL (≈ 21.9 µM) against Staphylococcus aureus [4]. Further, the figures for the MIC against Staphylococcus aureus [5], in the assay on Streptococcus pneumoniae [6] and in the assay with Streptococcus pneumoniae [7] were 2.5 µg/mL (≈ 2.74 µM), 5 µg/mL (≈ 5.48 µM) and 10 µg/mL (≈ 11 µM), respectively.

As for `CC[C@H]1OC(=O)C(C)(C)C(=O)[C@H](C)[C@@H](O[C@@H]2O[C@H](C)C[C@H](N(C)C)[C@H]2O)[C@](C)(OC)C[C@@H](C)C(=O)[C@H](C)[C@H]2N(CCCCn3cnc(-c4cccnc4)c3)C(=O)O[C@]12C`, the MIC with Haemophilus influenzae was 2.5 µg/mL (≈ 3.03 µM); against Streptococcus pyogenes, 0.02 µg/mL (≈ 0.0242 µM); in the assay with Staphylococcus aureus [1], greater than 40 µg/mL; in the assay with Streptococcus pneumoniae [2], 0.02 µg/mL (≈ 0.0242 µM); in the assay on Streptococcus pneumoniae [3], 2.5 µg/mL (≈ 3.03 µM); against Staphylococcus aureus [4] it was 1.2 µg/mL (≈ 1.45 µM). The MIC is 0.6 µg/mL (≈ 0.726 µM) against Staphylococcus aureus [5], 0.6 µg/mL (≈ 0.726 µM) with Streptococcus pneumoniae [6] and 2.5 µg/mL (≈ 3.03 µM) with Streptococcus pneumoniae [7].

The term ED50 denotes the midpoint of the dose-response relation. Low values mean greater potency, high ones weaker potency. For `CC[C@H]1OC(=O)[C@@](C)(F)C(=O)[C@H](C)[C@@H](O[C@@H]2O[C@H](C)C[C@H](N(C)C)[C@H]2O)[C@](C)(OC)C[C@@H](C)C(=O)[C@H](C)[C@H]2N(CCCCn3cnc(-c4cccnc4)c3)C(=O)O[C@]12C`, the MIC against Haemophilus influenzae was 1.2 µg/mL (≈ 1.45 µM); in the assay with Streptococcus pyogenes it was less than 0.02 µg/mL; against Staphylococcus aureus [1], greater than 40 µg/mL; in the assay on Streptococcus pneumoniae [2] it was less than 0.02 µg/mL; against Streptococcus pneumoniae [3] it was less than 0.02 µg/mL; in the assay on Staphylococcus aureus [4] it was 0.08 µg/mL (≈ 0.0964 µM). Further, the MIC with Staphylococcus aureus [5] is 0.02 µg/mL (≈ 0.0241 µM); against Streptococcus pneumoniae [6], less than 0.02 µg/mL; with Streptococcus pneumoniae [7], less than 0.02 µg/mL. In addition, the median effective dose (ED50) with Mus musculus [8] came to 2 mg/kg; in the assay on Mus musculus [9] it was 1.5 mg/kg; in the assay with Mus musculus [10], 56 mg/kg; in the assay on Mus musculus [11], 4.3 mg/kg; in the assay on Mus musculus [12] it was 9 mg/kg.

With `CC[C@H]1OC(=O)C(C)(Cl)C(=O)[C@H](C)[C@@H](O[C@@H]2O[C@H](C)C[C@H](N(C)C)[C@H]2O)[C@](C)(OC)C[C@@H](C)C(=O)[C@H](C)[C@H]2N(CCCCn3cnc(-c4cccnc4)c3)C(=O)O[C@]12C` (stereo partly specified), the MIC was 2.5 µg/mL (≈ 2.95 µM) in the assay on Haemophilus influenzae; 0.04 µg/mL (≈ 0.0473 µM) in the assay with Streptococcus pyogenes; greater than 40 µg/mL against Staphylococcus aureus [1]; 0.04 µg/mL (≈ 0.0473 µM) in the assay on Streptococcus pneumoniae [2]; 1.2 µg/mL (≈ 1.42 µM) with Streptococcus pneumoniae [3]; greater than 40 µg/mL with Staphylococcus aureus [4]. In addition, the MIC against Staphylococcus aureus [5] is 0.6 µg/mL (≈ 0.709 µM); in the assay on Streptococcus pneumoniae [6] it was 0.6 µg/mL (≈ 0.709 µM); in the assay on Streptococcus pneumoniae [7] it was 5 µg/mL (≈ 5.91 µM).

As to `CC[C@H]1OC(=O)/C(C)=C(/OCOCCCc2ccccc2)[C@H](C)[C@@H](O[C@@H]2O[C@H](C)C[C@H](N(C)C)[C@H]2O)[C@](C)(OC)C[C@@H](C)C(=O)[C@H](C)[C@H]2N(CCCCn3cnc(-c4cccnc4)c3)C(=O)O[C@]12C`, the MIC against Haemophilus influenzae was greater than 40 µg/mL; in the assay on Streptococcus pyogenes it was 0.15 µg/mL (≈ 0.156 µM); against Staphylococcus aureus [1], greater than 40 µg/mL; against Streptococcus pneumoniae [2], 0.8 µg/mL (≈ 0.833 µM); with Streptococcus pneumoniae [3] it was 20 µg/mL (≈ 20.8 µM); against Staphylococcus aureus [4], greater than 40 µg/mL. Also, the MIC in the assay with Staphylococcus aureus [5] was determined as 5 µg/mL (≈ 5.21 µM); in the assay on Streptococcus pneumoniae [6], 20 µg/mL (≈ 20.8 µM); in the assay with Streptococcus pneumoniae [7], 20 µg/mL (≈ 20.8 µM).

On to `CC[C@H]1OC(=O)/C(C)=C\[C@H](C)[C@@H](O[C@@H]2O[C@H](C)C[C@H](N(C)C)[C@H]2O)[C@](C)(OC)C[C@@H](C)C(=O)[C@H](C)[C@H]2N(CCCCn3cnc(-c4cccnc4)c3)C(=O)O[C@]12C`, for which the MIC in the assay on Haemophilus influenzae was 2.5 µg/mL (≈ 3.14 µM); against Streptococcus pyogenes, 0.02 µg/mL (≈ 0.0251 µM); with Staphylococcus aureus [1], greater than 40 µg/mL; in the assay with Streptococcus pneumoniae [2] it was 0.02 µg/mL (≈ 0.0251 µM); against Streptococcus pneumoniae [3], 0.3 µg/mL (≈ 0.377 µM); against Staphylococcus aureus [4] it was 0.3 µg/mL (≈ 0.377 µM). Further, the MIC was 0.08 µg/mL (≈ 0.101 µM) with Staphylococcus aureus [5], 2.5 µg/mL (≈ 3.14 µM) in the assay with Streptococcus pneumoniae [6] and 10 µg/mL (≈ 12.6 µM) against Streptococcus pneumoniae [7].

In the case of `CC[C@H]1OC(=O)[C@H](C)[C@@H](O[C@H]2C[C@@](C)(OC)[C@@H](O)[C@H](C)O2)[C@H](C)[C@@H](O[C@@H]2O[C@H](C)C[C@H](N(C)C)[C@H]2O)[C@](C)(O)C[C@@H](C)CN(C)[C@H](C)[C@@H](O)[C@]1(C)O` [AZITHROMYCIN], the MIC with Haemophilus influenzae was 1.2 µg/mL (≈ 1.6 µM); with Streptococcus pyogenes it was 0.6 µg/mL (≈ 0.801 µM); against Staphylococcus aureus [1], greater than 40 µg/mL; with Streptococcus pneumoniae [2] it was 0.15 µg/mL (≈ 0.2 µM); in the assay on Streptococcus pneumoniae [3], greater than 40 µg/mL; against Staphylococcus aureus [4], greater than 40 µg/mL. Moreover, the MIC is 0.3 µg/mL (≈ 0.401 µM) against Staphylococcus aureus [5], greater than 40 µg/mL against Streptococcus pneumoniae [6] and greater than 40 µg/mL against Streptococcus pneumoniae [7]. In addition, the ED50 with Mus musculus [13] was 4.5 mg/kg; in the assay on Mus musculus [14], greater than 50 mg/kg; with Mus musculus [15] it was greater than 50 mg/kg; in the assay on Mus musculus [16], 72 mg/kg; in the assay with Mus musculus [17], 94 mg/kg.

`CC[C@H]1OC(=O)[C@H](C)[C@@H](O[C@H]2C[C@@](C)(OC)[C@@H](O)[C@H](C)O2)[C@H](C)[C@@H](O[C@@H]2O[C@H](C)C[C@H](N(C)C)[C@H]2O)[C@](C)(OC)C[C@@H](C)C(=O)[C@H](C)[C@@H](O)[C@]1(C)O` [CLARITHROMYCIN]: the MIC is 5 µg/mL (≈ 6.68 µM) in the assay on Haemophilus influenzae; 0.008 µg/mL (≈ 0.0107 µM) in the assay on Streptococcus pyogenes; greater than 40 µg/mL in the assay on Staphylococcus aureus [1]; 0.04 µg/mL (≈ 0.0535 µM) against Streptococcus pneumoniae [2]; greater than 40 µg/mL with Streptococcus pneumoniae [3]; greater than 40 µg/mL in the assay on Staphylococcus aureus [4]. For the same molecule, the values for the MIC against Staphylococcus aureus [5], against Streptococcus pneumoniae [6] and against Streptococcus pneumoniae [7] were 0.3 µg/mL (≈ 0.401 µM), greater than 40 µg/mL and greater than 40 µg/mL, respectively. The ED50 with Mus musculus [8] is greater than 50 mg/kg; with Mus musculus [9] it was 2 mg/kg; in the assay with Mus musculus [10], greater than 150 mg/kg; in the assay on Mus musculus [11], greater than 50 mg/kg; with Mus musculus [12], 12 mg/kg.

As for `CC[C@H]1OC(=O)[C@H](C)C(=O)[C@H](C)[C@@H](O[C@@H]2O[C@H](C)C[C@H](N(C)C)[C@H]2O)[C@](C)(OC)C[C@@H](C)C(=O)[C@H](C)[C@H]2N(CCCCn3cnc(-c4cccnc4)c3)C(=O)O[C@]12C` [TELITHROMYCIN], the MIC in the assay on Haemophilus influenzae is 1.2 µg/mL (≈ 1.48 µM); against Streptococcus pyogenes, less than 0.02 µg/mL; against Staphylococcus aureus [1], greater than 40 µg/mL; against Streptococcus pneumoniae [2], less than 0.02 µg/mL; against Streptococcus pneumoniae [3], 0.04 µg/mL (≈ 0.0493 µM); in the assay with Staphylococcus aureus [4], 0.08 µg/mL (≈ 0.0985 µM). For the same molecule, the figures for the MIC with Staphylococcus aureus [5], in the assay on Streptococcus pneumoniae [6] and against Streptococcus pneumoniae [7] were 0.04 µg/mL (≈ 0.0493 µM), less than 0.02 µg/mL and less than 0.02 µg/mL, respectively.

The values are drawn from ChEMBL document CHEMBL1133301, “Beta-keto-ester chemistry and ketolides. Synthesis and antibacterial activity of 2-halogeno, 2-methyl and 2,3 enol-ether ketolides” (2000).
